Data published in US10669310B2, “Peptide for cancer treatment and pharmaceutical composition containing same” (TOKUSHIMA UNIVERSITY, priority 2016, dated 2020).
Where a SMILES comes first, the peptide text is derived from it.

Key:
[1] = format: in vivo; conditions: i.p. every day or every four days, 28 days
Protocol: (§1) KPL-3C cell suspensions (1×10^7 cells/mouse) were mixed with an equal volume of Matrigel (BD) and injected (200 μL in total) into the mammary fat pads of 6-week-old female BALB/c nude mice (Charles River Laboratories, Tokyo, Japan). The mice were housed in a pathogen-free isolation facility with a twelve-hour light/dark cycle and were fed solid rodent chow and water ad libitum. The tumors developed over several days and reached sizes of approximately 100 mm^3 [calculated as ½×(width×length^2)]. The mice were randomized into the following eleven treatment groups (five heads per group):
(§2) E2 was administered via application of a solution to the neck skin, and regarding the other treatments, administration was performed via intraperitoneal injection unless other administration methods are stated. The tumor volume was measured with calipers for 28 days, and then the mice were subjected to scheduled sacrifice to remove tumors. All the experiments were performed in accordance with the guidelines of the animal facility at Tokushima University.

MCF-7 cells = format: cell-based, human; conditions: for IC50: 96 h; for duration of significant cell growth inhibitory effects: 1 μM, E2-dependent growth of MCF-7
Protocol: (§3) Human breast cancer cell line MCF-7 and mammary epithelial cell line MCF-10A were purchased from American Type Culture Collection (ATCC, Manassas, Va., USA). Breast cancer cell line KPL-3C (J. Kurebayashi, et al., Br. J. Cancer 74, 200-207 (1996)) was kindly provided by Dr. Junichi Kurebayashi (Kawasaki Medical School). All cell lines were monolayer cultured in an appropriate medium supplemented with 10% FBS. The cells were maintained at 37° C. under humidified atmosphere containing 5% CO2.
(§4) In each experiment, the respective cells were seeded in a 48-well plate (2×10^4 cells/mL), a 6-well plate (3×10^5 cells/mL), or a 10-cm dish (2×10^6 cells/10 mL). MCF-7 cells were seeded in MEM (Thermo Fisher Scientific) supplemented with 10% FBS (Nichirei Biosciences Inc., Tokyo, Japan), 1% Antibiotic/Antimycotic solution (Thermo Fisher Scientific, Waltham, Mass., USA), 0.1 mM NEAA (Thermo Fisher Scientific), 1 mM sodium pyruvate (Thermo Fisher Scientific), and 10 μg/mL insulin (Sigma, St. Louis, Mo., USA). KPL-3C cells were seeded in RPMI (Thermo Fisher Scientific) supplemented with 10% FBS and 1% Antibiotic/Antimycotic solution. MCF-10A cells were seeded in MEBM (Lonza) supplemented with a Single Quots kit (BPE, hydrocortisone, hEGF, insulin, gentamycin/amphoterin-B) (Lonza, Walkersville, Md., USA) and 100 ng/mL cholera toxin. For 17β-estradiol (E2) (Sigma) stimulation, the media for MCF-7 and KPL-3C were changed to phenol red-free DMEM/F12 (Thermo Fisher Scientific) supplemented with 10% FBS, 1% Antibiotic/Antimycotic solution, 0.1 mM NEAA, 1 mM sodium pyruvate, and 10 μg/mL insulin on the day after seeding. Twenty-four hours later, the cells were treated with 10 nM E2 and a peptide (for example, 11R-ERAP or a stapled ERAP), or with 10 nM E2 alone.
When carrying out treatment with tamoxifen (Sigma) or fulvestrant (LKT laboratories, St. Paul, Minn., USA), cells were treated with 10 nM tamoxifen or 2 μM fulvestrant simultaneously with the above-mentioned treatment with E2 and a peptide or with E2 alone.
Cell growth assays on MCF-7, KPL-3C, and MCF-10A were carried out as described previously using a Cell Counting Kit-8 (CCK-8) (Dojindo, Kumamoto, Japan) (T. Yoshimaru, et al., Nat. Commun. 4, 2443 (2013)). The data are shown by mean±SE of three independent experiments.

[2] = test system: KPL-3C orthotopic breast cancer xenografts; test: In vivo tumor growth inhibition, KPL-3C orthotopic xenograft, intraperitoneal; set-up: species or system BALB/c nude mice; conditions: 1 mg/kg or 0.1 mg/kg i.p. every four or seven days, up to 28 days
Protocol: as §1, §2

BIG3-PHB2 interaction = target: T1, BIG3-PHB2 interaction (Homo sapiens, UniProt Q99623); test: Co-immunoprecipitation with anti-BIG3 antibody in MCF-7 cells; format: cell-based; conditions: MCF-7, 1 μM, 24 hours after treatment
T1 construct: complex formation between the endogenous BIG3 and PHB2 in ERα-positive breast cancer cell line MCF-7; endogenous in cells; host or cells: MCF-7
Protocol: Immunoblot analyses were performed as described previously (T. Yoshimaru, et al., Nat. Commun. 4, 2443 (2013)). After performing SDS-PAGE, the membranes blotted with proteins were blocked with 4% BlockAce solution (Dainippon Pharmaceutical, Osaka, Japan) for three hours and then incubated with antibodies against the following proteins: BIG3 (1:1,000) (T. Yoshimaru, et al., Nat. Commun. 4, 2443 (2013)); PHB2 (1:1,000) (Abeam, Cambridge, UK); Akt, phosphorylated Akt (S473) (587F11, 1:1,000); p44/42 MAPK, phosphorylated p44/42 MAPK (T202/Y204) (1:1,000); α/β-tubulin (1:1,000) (Cell Signaling Technology, Danvers, Mass., USA); and LMNB1 (1:100) (Sigma). After incubation with an HRP-labeled secondary antibody (anti-mouse IgG-HRP, 1:5,000; anti-rat IgG-HRP; 1:5,000; or anti-rabbit IgG-HRP, 1:1,000) (Santa Cruz Biotechnology, Dallas, Tex., USA) for one hour, the blots were developed with an Enhanced Chemiluminescence (ECL) system (GE Healthcare, Buckinghamshire, UK) and scanned using an Image Reader LAS-3000 mini (Fujifilm, Tokyo, Japan). All the experiments were performed at least in triplicate.
Immunoprecipitation analysis was performed as described previously (T. Yoshimaru, et al., Nat. Commun. 4, 2443 (2013)). Cell lysates were pre-cleared with normal IgG and rec-Protein G Sepharose 4B (Thermo Fisher Scientific) at 4° C. for three hours. Then, the supernatants were incubated with 5 μg of an antibody against BIG3 or an antibody against PHB2 at 4° C. for twelve hours. Next, the antigen-antibody complexes were precipitated using rec-Protein G Sepharose 4B at 4° C. for one hour. The immunoprecipitated protein complexes were washed several times with a lysis buffer. Then, SDS-PAGE and immunoblot analyses were carried out as described above.

[3] = test system: ERα target genes TFF1 and CCND1; test: ERα target gene expression in removed tumors; format: in vivo, BALB/c nude mice; conditions: 0.02, 0.1 or 1 mg/kg i.p. every four days or every seven days
Protocol: The expression of the ERα target genes (TFF1 and CCND1) was evaluated by real-time RT-PCR as described previously (T. Yoshimaru, et al., Nat. Commun. 4, 2443 (2013)). Each sample was normalized to the β2-MG mRNA content, and the results were expressed as multiples (-fold) of the expression level in untreated cells, with that level being defined as 1.0. The data represent the mean±SD of three independent experiments. The primers used for RT-PCR were as follows: […]

MCF-10A cells = test: Cell growth (MTT) assay, MCF-10A cells; format: cell-based, human; conditions: normal mammary epithelial cells, ERα-negative and BIG3-negative
Protocol: as §3
as §4, with “For 17β-estradiol (E2) (Sigma) stimulation, the media for MCF-7 and KPL-3C were changed to phenol red-free DMEM/F12 (Thermo Fisher Scientific) supplemented with 10% FBS, 1% Antibiotic/Antimycotic solution, 0.1 mM NEAA, 1 mM sodium pyruvate, and 10 μg/mL insulin on the day after seeding. Twenty-four hours later, the cells were treated with 10 nM E2 and a peptide (for example, 11R-ERAP or a stapled ERAP), or with 10 nM E2 alone.” left out

[4] = In vitro blood-brain barrier permeability test; format: in vitro ADME
Protocol: BIG3 is expressed in the brain though expression is weak (Kim, J. W. et al., Cancer Sci. 100, 1468-1478 (2009)). Then, since there were concerns of side effects due to the transfer of stapled ERAP to the brain, blood-brain-barrier permeability test was carried out on stapled ERAP. Blood-brain-barrier permeability of stapled ERAP (No. 12) was examined by placing stapled ERAP (No. 12) to the inner side (vascular cavity side) of the insert of a blood-brain barrier permeability kit, and measuring the concentration of stapled ERAP (No. 12) that passed through a filter specialized for intracerebral transferability assay and leaked into the well (cerebral parenchyma side) of the plate in 30 minutes. The permeability coefficient (Papp) at this time was calculated (2 or less: very low permeability; 2 to 10: low permeability; 10 to 20: high permeability; and 20 or higher: very high permeability).

T1 sequence (Q99623 2-299 limits assumed): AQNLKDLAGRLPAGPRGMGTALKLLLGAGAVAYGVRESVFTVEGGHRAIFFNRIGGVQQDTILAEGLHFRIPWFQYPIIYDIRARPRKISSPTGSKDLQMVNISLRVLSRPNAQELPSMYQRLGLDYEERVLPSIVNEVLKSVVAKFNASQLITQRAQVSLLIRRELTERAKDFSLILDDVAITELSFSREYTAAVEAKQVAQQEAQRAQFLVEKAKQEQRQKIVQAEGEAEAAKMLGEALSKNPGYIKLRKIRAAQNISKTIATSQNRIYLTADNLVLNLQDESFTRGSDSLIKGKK

SMILES	toxicity, body weight [1]	inhibition rate of E2-dependent growth (MCF-7 cells) [%]	IC50 (MCF-7 cells) [nM]	E2-dependent tumor growth [2]	inhibition of endogenous BIG3-PHB2 complex formation (BIG3-PHB2 interaction)	E2-dependent expression of TFF1 and CCND1 in tumors [3]	effect on MCF-10A cell growth (MCF-10A cells)	duration of significant cell growth inhibitory effects (MCF-7 cells)	Papp at 30 min, 30 μM ([4]; 30 μM) [×10⁻⁶ cm/s]	Papp at 30 min ([4]; 30 minutes, 2 or less: very low permeability, read-out: blood-brain barrier permeability coefficient (Papp)) [×10⁻⁶ cm/s]	recovery at 30 minutes, 10 μM ([4]; not told, 10 μM, read-out: Recovery Rate) [%]	recovery at 30 minutes, 30 μM ([4]; not told, 30 μM, read-out: Recovery Rate) [%]
CSCC[C@H](NC(=O)[C@H](CCC(N)=O)NC(=O)CNC(=O)CNC(=O)CNC(=O)[C@H](CCCNC(=N)N)NC(=O)[C@H](CCCNC(=N)N)NC(=O)[C@H](CCCNC(=N)N)NC(=O)[C@H](CCCNC(=N)N)NC(=O)[C@H](CCCNC(=N)N)NC(=O)[C@H](CCCNC(=N)N)NC(=O)[C@H](CCCNC(=N)N)NC(=O)[C@H](CCCNC(=N)N)NC(=O)[C@H](CCCNC(=N)N)NC(=O)[C@H](CCCNC(=N)N)NC(=O)[C@@H](N)CCCNC(=N)N)C(=O)N[C@@H](CC(C)C)C(=O)N[C@@H](CO)C(=O)N[C@@H](CC(=O)O)C(=O)N[C@@H](CC(C)C)C(=O)N[C@H](C(=O)N[C@@H](CC(C)C)C(=O)N[C@@H](CCC(N)=O)C(=O)N[C@@H](CC(C)C)C(=O)N[C@@H](CCCNC(=N)N)C(=O)N[C@@H](CCC(N)=O)C(=O)N[C@@H](CCCNC(=N)N)C(=O)O)[C@@H](C)O [11R-ERAP, 11R-GGG-QMLSDLTLQLRQR, reference compound] (H-RRRRRRRRRRRGGGQMLSDLTLQLRQR-OH; N-terminus and C-terminus assumed)	No toxicity or significant body weight decrease	45	7970	–	–	–	–	–	–	–	–	–
CSCC[C@@H](NC(=O)[C@H]1CCC(=O)NCCCCNC(=O)CC[C@@H](NC(=O)[C@@H](CC(C)C)NC(=O)[C@@H](CCC(N)=O)NC(=O)[C@@H](CC(C)C)NC(=O)[C@@H](CCCNC(=N)N)NC(=O)[C@@H](CCC(N)=O)NC(=O)[C@@H](CCCNC(=N)N)NC(C)=O)C(=O)N[C@H](CC(C)C)C(=O)N[C@H](CC(=O)O)C(=O)N[C@H](CO)C(=O)N1)C(=O)N[C@H](CCC(N)=O)C(N)=O [RI stapled ERAP No. 12]	–	–	500	almost fully inhibited	inhibited endogenous BIG3-PHB2 complex formation	significantly suppressed	not inhibited	seven	–	–	–	–
CSCC[C@H](NC(=O)[C@H](CCC(N)=O)NC(C)=O)C(=O)N[C@H]1CCC(=O)NCCCCNC(=O)CC[C@@H](C(=O)N[C@@H](CC(C)C)C(=O)N[C@@H](CCC(N)=O)C(=O)N[C@@H](CC(C)C)C(=O)N[C@@H](CCCNC(=N)N)C(=O)N[C@@H](CCC(N)=O)C(=O)N[C@@H](CCCNC(=N)N)C(N)=O)NC(=O)[C@H](CC(C)C)NC(=O)[C@H](CC(=O)O)NC(=O)[C@H](CO)NC1=O [stapled ERAP No. 12]	No toxicity or significant body weight decrease	–	590	–	–	–	–	–	0.177	≤ 2	0	0.01
CSCC[C@@H](NC(=O)[C@@H](CCC(N)=O)NC(C)=O)C(=O)N[C@@H]1CCC(=O)NCCCCNC(=O)CC[C@H](C(=O)N[C@H](CC(C)C)C(=O)N[C@H](CCC(N)=O)C(=O)N[C@H](CC(C)C)C(=O)N[C@H](CCCNC(=N)N)C(=O)N[C@H](CCC(N)=O)C(=O)N[C@H](CCCNC(=N)N)C(N)=O)NC(=O)[C@@H](CC(C)C)NC(=O)[C@@H](CC(=O)O)NC(=O)[C@@H](CO)NC1=O [stapled-D-ERAP No. 12]	–	–	440	–	inhibited endogenous BIG3-PHB2 complex formation	–	not inhibited	seven	–	–	–	–
